Values after ≈ are worked out from the molar mass of the structure shown. Where two headings read alike, the source gives them in different places.
Tests used:
[1] = tested on: Plasmodium falciparum, malarial strain GA3; experiment: Antimalarial activity in vitro, growth inhibition, strain GA3; assay type: cell-based; details: 50% inhibition of parasite growth; for IC50: Plasmodium falciparum
Description: (§1) The antimalarial activity of various hydroxylated artemisinin derivatives obtained via the present method was determined by Drs. S. Anderson and W.K. Milhous at the Division of Experimental Therapeutics, Walter Reed Army Institute of Research, Washington, D.C.
(§2) The malarial strains employed in this survey include D6, W2, and GA3. In Table 2, below, the -pharmacological data are reported as IC-50, indicating the concentration, in ng per ml, of compound required to inhibit growth of the parasite at the 50% level.

Plasmodium falciparum = experiment: Antimalarial activity against the strains tested (summary of in vitro tests); assay type: cell-based; details: in words
Description: as §1, §2

[2] = tested on: Plasmodium falciparum, malarial strain W2; experiment: Antimalarial activity in vitro, growth inhibition, strain W2; assay type: cell-based; details: for IC50: Plasmodium falciparum
Description: as §1, §2

[3] = tested on: Plasmodium falciparum, malarial strain D6; experiment: Antimalarial activity in vitro, growth inhibition, strain D6; assay type: cell-based; details: for IC50: Plasmodium falciparum
Description: as §1, §2

P. falciparum = details: cited from earlier work
Falciparum malaria = details: cited from earlier work; for reversal of chloroquine-resistance: with chloroquine, reports by Van Dyke et al.
[4] = strain D6, in vitro, 50% inhibition of parasite growth, read-out: IC-50
[5] = strain W2, in vitro, 50% inhibition of parasite growth, read-out: IC-50

| IC50 [3, 4] [ng/mL] | IC50 [1] [ng/mL] | IC50 [2, 5] [ng/mL] | SMILES | antimalarial activity (Plasmodium falciparum) | other results |
| --- | --- | --- | --- | --- | --- |
| – | – | – | CCOC1OC2OC3(C)CCC4C(C)C(O)CC(C1C)C24OO3 (stereo not drawn) [7β-Hydroxyarteether] | exhibit antimalarial activity against the strains tested | IC-50 [1]: 8.83 ng/mL; IC-50 ([2]; strain W2, in vitro, 50% inhibition of parasite growth): 2.78 ng/mL; IC-50 ([3]; strain D6, in vitro, 50% inhibition of parasite growth): 12.6 ng/mL |
| 2 (≈ 4.77 nM) | – | – | C[C@H]1C(OC(=O)Nc2ccccc2)O[C@@H]2O[C@@]3(C)CC[C@H]4[C@H](CO)CC[C@@H]1[C@@]24OO3 (stereo partly shown) [14-Hydroxy-N-phenylcarbamoyl dihydroartemisinin] | exhibit antimalarial activity against the strains tested | – |
| 12.6 (≈ 38.4 nM) | 8.18 (≈ 24.9 nM) | 2.77 (≈ 8.43 nM) | CCOC1OC2OC3(C)CCC4C(CO)CCC(C1C)C24OO3 (stereo not shown) [14-Hydroxyarteether] | exhibit antimalarial activity against the strains tested | – |
| 0.73 (≈ 2.34 nM) | 0.498 (≈ 1.59 nM) | 0.28 (≈ 0.896 nM) | CCOC1OC2OC3(C)CCC4C(C)CCC(C1C)C24OO3 (stereo not shown) [Arteether, ethyl ether of dihydroartemisinin] | – | – |
| – | – | – | CCN(CC)CCCC(C)Nc1ccnc2cc(Cl)ccc12 (stereo not shown) [Chloroquine, chloroquine] | – | IC50 ([2]; W2): 41.4 ng/mL (≈ 129 nM); IC50 ([3]; D6): 6.63 ng/mL (≈ 20.7 nM) |
| – | – | – | COc1ccc2cc1Oc1ccc(cc1)C[C@H]1c3cc(c(OC)cc3CCN1C)Oc1c(OC)c(OC)cc3c1[C@H](C2)N(C)CC3 [tetrandrine] | – | synergy with antimalarial drugs (Falciparum malaria; Van Dyke): act in a synergistic manner to greatly reduce the quantities of drugs required for activity; reversal of chloroquine-resistance (Falciparum malaria): reverse the chloroquine-resistance in Falciparum malaria |
| – | – | – | COc1ccc(CCN(C)CCCC(C#N)(c2ccc(OC)c(OC)c2)C(C)C)cc1OC (stereo not shown) [verapamil] | – | synergy with antimalarial drugs (Falciparum malaria): act in a synergistic manner to greatly reduce the quantities of drugs required for activity; reversal of chloroquine-resistance (Falciparum malaria): reverse the chloroquine-resistance in Falciparum malaria |

| SMILES | IC50 [3, 4] [ng/mL] | IC50 [1] [ng/mL] | IC50 [2, 5] [ng/mL] | antimalarial activity (Plasmodium falciparum) | other results |
| --- | --- | --- | --- | --- | --- |
| C[C@@H]1CC[C@H]2[C@@H](C)C(=O)O[C@@H]3O[C@@]4(C)CC[C@@H]1[C@]32OO4 [Artemisinin, artemisinin] | 0.97 (≈ 3.44 nM) | 1.58 (≈ 5.6 nM) | 0.79 (≈ 2.8 nM) | – | resistance development (P. falciparum; P. falciparum): P. falciparum has not developed resistance; speed of action (P. falciparum): act rapidly; toxicity (P. falciparum): relatively non-toxic |
